Results as given in patent US12570612B2, “Substituted nitrogen heterocyclic compound and anesthetic effect thereof” (priority 2019, dated 2026).
Read-outs that look alike come from different tables or passages of the source.

Tests used:
Type in all cases: in vivo
Sprague-Dawley rats [1] = conditions: tail vein
Sprague-Dawley rats [2] = experiment: animal or person; conditions: rats; for ED50: LORR, up and down method, tail vein, class symbols
Source text: Evaluating indicator: The end point of anesthesia: LORR was used as the end point of anesthesia; General anesthesia effect: the disappearance of forepaw righting reflex in rats lasting for 30 seconds is taken as the index of general anesthesia effect; Anesthesia recovery index: the recovery of rat forepaw righting reflex was used as the index of anesthesia recovery.

Sprague-Dawley rats [3] = experiment: Pharmacological effect and adverse reactions under the equivalent dose (2ED50), Group C compounds; conditions: for Righting reflex duration / Sedation duration / Onset time: 2ED50, tail vein, rats, n=8; for Onset time: unit s; for Adverse reaction: Convulsions / Adverse reaction: Cough, broken-winded / Adverse reaction: Euphoria / Adverse reaction: Red urine / Adverse reaction: Slower breathing, Tetany convulsion / Adverse reaction: Systemic stiffness, Convulsions, Opisthotonus / Adverse reaction: Tongue stretching / Adverse reaction: Tremor / Adverse reaction: the four limbs rigidity: equivalent dose (2ED50), number of rats of n = 8
Source text: Evaluation index: onset time: from the completion of drug injection to the disappearance of forepaw righting reflex in rats; Duration of anesthesia: the time from the disappearance of rat forepaw righting reflex to the recovery of rat forepaw righting reflex; Recovery time of anesthesia: the time from the […] to complete recovery;

[4] = Rattus norvegicus, read-out: ED50

Structure (SMILES) | Minimal lethal dose (Sprague-Dawley rats [1]) | ED50 (Sprague-Dawley rats [2]) | Approximate therapeutic index (Sprague-Dawley rats [2]) | Righting reflex duration (Sprague-Dawley rats [3]) | Sedation duration (Sprague-Dawley rats [3]) | Onset time (Sprague-Dawley rats [3]) | Adverse reaction: Convulsions (Sprague-Dawley rats [3]) | Adverse reaction: Cough, broken-winded (Sprague-Dawley rats [3]) | Adverse reaction: Euphoria (Sprague-Dawley rats [3]) | Adverse reaction: Red urine (Sprague-Dawley rats [3]) | Adverse reaction: Slower breathing, Tetany convulsion (Sprague-Dawley rats [3]) | Adverse reaction: Systemic stiffness, Convulsions, Opisthotonus (Sprague-Dawley rats [3]) | Adverse reaction: Tongue stretching (Sprague-Dawley rats [3]) | Adverse reaction: Tremor (Sprague-Dawley rats [3]) | Adverse reaction: the four limbs rigidity (Sprague-Dawley rats [3]) | ED50 (Sprague-Dawley rats [2]; [4])
C[C@H](c1ccccc1)n1cnc(F)c1C(=O)COCC1CC1 [Compound C76] | >15.6 mg/kg | ++ (++ means that the measured ED50 is in the range of 0.50-1.00 mg/kg (excluding 0.50 mg/kg, including 1.00 mg/kg)) | >21.9 | 1.72 ± 0.61 min | 4.32 ± 0.96 min | <30 s | 0 | 0 | 0 | 8 | 0 | 0 | 0 | 1 | 1 | –
CCSCC(=O)c1ccnn1[C@H](C)c1ccccc1 [Compound C9, (R)-2-(ethylthio)-1-(1-(1-phenylethyl)-1H-pyrazol-5-yl)ethan-1-one] | >10.2 mg/kg | – | >2.1 | 1.56 ± 0.89 min | 6.62 ± 0.72 min | <30 s | 0 | 0 | 0 | 8 | 0 | 0 | 0 | 0 | 0 | 2 to 10 mg/kg
CC(=O)COCC(=O)c1cncn1[C@H](C)c1ccccc1 [Compound C51] | >12.5 mg/kg | – | >8.3 | 2.89 ± 0.68 min | 4.62 ± 1.02 min | <30 s | 0 | 0 | 0 | 8 | 0 | 0 | 0 | 2 | 0 | 1 to 2 mg/kg
C[C@H](c1ccccc1)n1cnc(F)c1C(=O)COCC1CCC1 [Compound C70] | >6.4 mg/kg | + (+ indicates that the measured ED50 is in the range of 0.04-0.50 mg/kg (including 0.04 and 0.50 mg/kg)) | >18.2 | 1.35 ± 0.61 min | 5.30 ± 1.14 min | <30 s | 0 | 0 | 4 | 8 | 0 | 0 | 0 | 0 | 6 | –
C#CCOCC(=O)c1c(F)ncn1[C@H](C)c1ccccc1 [Compound C73] | >4.0 mg/kg | – | >23.4 | 1.24 ± 0.56 min | 6.76 ± 1.49 min | <30 s | 0 | 0 | 0 | 8 | 0 | 2 | 0 | 0 | 1 | 0.04 to 0.5 mg/kg
COCC(=O)c1c(F)ncn1[C@H](C)c1ccccc1 [Compound C71] | >6.6 mg/kg | ++ (++ means that the measured ED50 is in the range of 0.50-1.00 mg/kg (excluding 0.50 mg/kg, including 1.00 mg/kg)) | >8.0 | 2.00 ± 0.81 min | 5.11 ± 1.64 min | <30 s | 2 | 0 | 0 | 8 | 0 | 0 | 0 | 1 | 1 | –
CC(=O)COCC(=O)c1cc(F)nn1[C@H](C)c1ccccc1 [Compound C16] | >17.0 mg/kg | – | – | 2.26 ± 0.81 min | 4.89 ± 0.98 min | <30 s | 0 | 0 | 0 | 8 | 0 | 0 | 1 | 2 | 4 | 2 to 10 mg/kg
